Laboratory results published in patent US10682323B2, “Therapeutic agent for glaucoma” (TOA EIYO LTD., priority 2016, dated 2020).

System: Rabbits with normal intraocular pressure
Experiment: Influence on intraocular pressure in rabbits with normal intraocular pressure
Assay type: in vivo
Conditions: rabbit, 50 μL of 0.1 w/v % solution instilled into one eye, three hours after administration, saline eye minus test eye, average of three
Method: Rabbits (strain: Std:NZW, sex: male) with normal intraocular pressure were acclimated to breeding environment for more than three weeks, and subjected to test (three rabbits per one group).
A test compound was weighed, and a required amount of a 10 mmol/L or 20 mmol/L tris hydrochloric acid buffer solution was added thereto with a micropipette and dissolved therein. If necessary, a 1 mol/L hydrochloric acid or a 1 mol/L sodium hydroxide solution was used to prepare a physiological pH, to obtain the test compound solution (0.1 w/v % solution).
50 μL of the test compound solution was instilled into one eye, and 50 μL of a saline solution was instilled into the other eye as a negative control. Three hours after administration, intraocular pressure was measured. In addition, the measurement of intraocular pressure was repeated in the manner of right eye→left eye→right eye→left eye→ . . . , and continued until the changes of three consecutive intraocular pressures of the right eye and the left eye were within 1 mmHg, respectively. The average of three intraocular pressures at that time was recorded as the intraocular pressure at that time. In addition, ΔIOP (mmHg) was calculated by subtracting the intraocular pressure of the eye for instillation of the test compound solution from the intraocular pressure of the eye for instillation of the saline solution.
In addition, the data represents an average of three tests per one group.

`CC(C)(C)c1cc(CO[C@@H](CN(CCCCC(=O)O)Cc2ccc(C(=O)O)cc2)c2ccccc2)cc(C(C)(C)C)c1` [Comparative Compound 4, reference compound] was tested, and the ΔIOP was 0.2 mmHg.

Compound `N#Cc1cccc([C@H](CN(CCCCC(=O)O)Cc2ccc(C(=O)O)cc2)OCc2ccc(Oc3ccccc3)cc2)c1` [Comparative Compound 3, reference compound] has a ΔIOP of 1.1 mmHg.

`O=C(O)CCCCN(CCc1ccccc1OCc1ccc(CCc2ccccc2)cc1)C1COc2cc(C(=O)O)ccc21` (stereo not shown) [Comparative Compound 2, reference compound] showed a ΔIOP of 1.5 mmHg.

For `O=C(O)CCCCN(Cc1ccc(C(=O)O)cc1)C[C@H](OCc1ccc(CCc2ccc(Cl)cc2)cc1)c1ccccc1` [Compound No. 6, (−)-4-([N-(4-carboxybutyl)-N-[(2R)-2-[4-[2-(4-chlorophenyl)ethyl]benzyloxy]-2-phenylethyl]amino]methyl)benzoic acid], the ΔIOP was 3.4 mmHg.

In the case of `O=C(O)CCCCN(Cc1ccc(C(=O)O)cc1)C[C@H](OCc1ccc(CCc2ccccc2)cc1)c1ccccc1` [Compound No. 14, (−)-4-([N-(4-carboxybutyl)-N-[(2R)-2-[4-(2-phenylethyl)benzyloxy]-2-phenylethyl]amino]methyl)benzoic acid], the ΔIOP is reported as 5.0 mmHg.

For `O=C(O)CCCCN(CCc1ccccc1OCc1ccc(CCc2ccccc2)cc1)Cc1ccc(C(=O)O)cc1` [Comparative Compound 1, reference compound], the ΔIOP was 0.3 mmHg.

Work on `O=C(O)CCCCN(CCc1ccccc1OCc1cccc2c1CCCC2)[C@H]1CCCc2cc(C(=O)O)ccc21` [Compound No. 8, (+)-(5S)-5-[N-(4-carboxybutyl)-N-[2-[2-(5,6,7,8-tetrahydronaphthalene-1-ylmethoxy)phenyl]ethyl]amino]-5,6,7,8-tetrahydronaphthalene-2-carboxylic acid] yielded a ΔIOP of 5.2 mmHg.
